Reference: US20250052744A1, “Dyes and Uses Thereof” (The University of Liverpool, priority 2021, published 2025)

Legend:
Test in all cases: Qualitative dye staining on agarose pads (EVOS M7000)
Type in all cases: cell-based
Set-up in all cases: key to Relative fluorescent intensity: Very high: If the cells looked twice as big in the fluorescent channel, it was marked as having “very high” relative fluorescent intensity; High: if the cells looked bigger in the fluorescent channel, it was marked as having “high” relative fluorescent intensity; Medium: If the cells looked almost the same size in the fluorescent channel and the bright field, it was marked as having “medium” relative fluorescent intensity; Low: If the cells looked smaller in the fluorescent channel as compared to the brightfield but still the whole cell was visible, it was marked as having “low” relative fluorescent intensity; Negligible: If only a few traces of a cell was visible in the fluorescent channel, it was marked as having “negligible” relative fluorescent intensity
Escherichia coli = conditions: DiSC3(5) 3 μM, SYBR Green I 10×, SYTO 13 3 μM, FM4-64 15 μM
Experimental: (§1) An overnight culture was prepared by inoculating a bacterial colony in approximately 5 ml of Urine and incubating the culture in an orbital shaker at 37° C.
(§2) The following media and materials were utilised: Cation-adjusted Mueller Hinton broth (MHB); Phosphate Buffered Saline (PBS); Membrane staining dye—FM4-64 (1.5 mM); Live cell staining dye—DiSC3(5) (1 mM); DNA staining dye—SYBR Green (1000×); DNA staining dye—SYTO 13 (0.5 mM); Ultrapure Agarose; Parafilm; Glass slides and coverslips; Scalpel; and EVOS M7000 fluorescent microscope.
(§3) A pre-cut parafilm or a coverslip was used as a guide and 22 mm×22 mm squares cut from parafilm. A square was cut out of the centre of the parafilm (approximately 10 mm×10 mm). The centre of the cut-out was discarded. Two parafilm gaskets were placed onto a cleaned glass slide. The glass slide was then placed on a dry bath set to 56° C. so that the parafilm adhered to the glass slide. The glass slide was then kept on the dry bath. Using a microwave, ultrapure agarose was dissolved in PBS at a concentration of 1.2%. The agarose solution was kept on a dry bath set at 56° C. 60 μl of the agarose solution was pipetted in the centre of the parafilm gaskets. A coverslip was then placed over the gaskets without applying pressure on the coverslip. The slide was then placed on a cool surface and left to solidify for 1-2 minutes. The coverslips were then gently lifted off the agarose pads.
(§4) In a first Eppendorf, 15 μl of FM4-64 and 6 μl of SYTO 13 was added and in a second Eppendorf 10 μl of SYBR Green and 3 μl of DiSC3(5) was added. Depending on the bacterial growth in urine, an appropriate concentration of the bacterial culture was placed in the two Eppendorfs (final bacterial concentration 10^6 CFU/ml). MHB was added so as to achieve a final volume of 1 ml. Final concentrations of the dyes in the sample was as follows: DiSC3(5): 3 μM; SYBR Green I: 10× (originally supplied as 10,000×); SYTO 13: 3 μM; and FM4-64: 15 μM
(§5) 4 μl of the contents of each Eppendorf were deposited on one agarose pad and the cells distributed across the agar surface by tilting the slide. The slide was left to dry for approximately 1 minute. A coverslip was then placed on top of the agarose pad. The slide was placed inside the microscope and incubated at 37° C. for 10 minutes. Using different light filters for each dye, an image of each pad at 40× magnification on an EVOS M7000 fluorescent microscope was captured. Eight images for each agarose pad was recorded (i.e. 8 each for brightfield and 2 fluorescent channels). For each agarose pad, 24 images were recorded. This corresponded to 48 images in total for each bacterial strain (2 agarose pads per strain). Table A below was used to take the images using the correct fluorescent channel and intensity (for imagining on any other instrument, the LED intensity will need to be normalised against the EVOS M7000).
(§6) To qualitatively calculate the relative fluorescent intensities, cell size was compared between brightfield and the fluorescent channel for a given fluorescent dye. If the cells are very fluorescent, they will appear bigger in the fluorescent channel as compared to the bright field. For our qualitative measurements, if the cells looked bigger in the fluorescent channel, it was marked as having “high” relative fluorescent intensity. If the cells looked twice as big in the fluorescent channel, it was marked as having “very high” relative fluorescent intensity. If the cells looked almost the same size in the fluorescent channel and the bright field, it was marked as having “medium” relative fluorescent intensity. If the cells looked smaller in the fluorescent channel as compared to the brightfield but still the whole cell was visible, it was marked as having “low” relative fluorescent intensity. If only a few traces of a cell was visible in the fluorescent channel, it was marked as having “negligible” relative fluorescent intensity.

Staphylococcus epidermis = conditions: DiSC3(5) 3 μM, SYBR Green I 10×, SYTO 13 3 μM, FM4-64 15 μM
Experimental: as §1, §2, §3, §4, §5, §6

Enterococcus spp. = conditions: Table 6 thresholds, Entercoccus, DiSC3(5) 3 μM, SYBR Green I 10×, SYTO 13 3 μM, FM4-64 15 μM
Experimental: as §1, §2, §3, §4, §5, §6

[1] = Table 6 thresholds, Escherichia coli
[2] = Table 7 commercial strain E. coli SEC 27
[3] = Table 7 commercial strain E. coli SEC 93
[4] = Table 8 sample Escherichia coli (051)
[5] = Table 8 sample Escherichia coli (052)
[6] = Table 8 sample Escherichia coli (053)
[7] = Table 6 thresholds, Staphylococcus epidermis
[8] = Table 8 sample Staphylococcus epidermis (044)
[9] = Table 8 sample Staphylococcus epidermis (045)
[10] = Table 8 sample Staphylococcus epidermis (046)

Row | SMILES | Percentage of cells stained (Escherichia coli; [1]) | Relative fluorescent intensity (Escherichia coli; [1]) | Percentage of cells stained (Escherichia coli; [2]) | Relative fluorescent intensity (Escherichia coli; [2]) | Percentage of cells stained (Escherichia coli; [3]) | Relative fluorescent intensity (Escherichia coli; [3]) | Percentage of cells stained (Escherichia coli; [4]) | Relative fluorescent intensity (Escherichia coli; [4]) | Percentage of cells stained (Escherichia coli; [5]) | Relative fluorescent intensity (Escherichia coli; [5]) | Percentage of cells stained (Escherichia coli; [6]) | Relative fluorescent intensity (Escherichia coli; [6]) | Percentage of cells stained (Staphylococcus epidermis; [7]) | Relative fluorescent intensity (Staphylococcus epidermis; [7]) | Percentage of cells stained (Staphylococcus epidermis; [8]) | Relative fluorescent intensity (Staphylococcus epidermis; [8]) | Percentage of cells stained (Staphylococcus epidermis; [9]) | Relative fluorescent intensity (Staphylococcus epidermis; [9]) | Percentage of cells stained (Staphylococcus epidermis; [10]) | Relative fluorescent intensity (Staphylococcus epidermis; [10]) | also measured
1 | CCCN1C(=CC=CC=Cc2sc3ccccc3[n+]2CCC)Sc2ccccc21.[I-] [DiSC3(5), 3,3′-Dipropylthiadicarbocyanine Iodide] | Almost all | Medium | Almost all | Medium | Almost all | Medium | Almost all | Medium | Almost all | Medium | Almost all | Medium | Almost all | Very high | Almost all | Very high | Almost all | Very high | Almost all | Very high | Percentage of cells stained (Enterococcus spp.): Half; Relative fluorescent intensity (Enterococcus spp.): low and Low
2 | CCN(CC)c1ccc(C=CC=CC=Cc2cc[n+](CCC[N+](CC)(CC)CC)cc2)cc1.[Br-].[Br-] [FM 4-64, N-(3-Triethylammoniumpropyl)-4-(6-(4-(Diethylamino) Phenyl) Hexatrienyl) Pyridinium Dibromide] | Almost all | Medium | Almost all | Medium | Almost all | Medium | Almost all | Medium | Almost all | Medium | Almost all | Medium | Almost all | Medium | Almost all | Medium | Almost all | Medium | Almost all | Medium | Percentage of cells stained (Enterococcus spp.): Almost all; Relative fluorescent intensity (Enterococcus spp.): medium; Relative fluorescent intensity (Enterococcus spp.; listed as FM4-64): Medium
3 | CCCN(CCCN(C)C)c1cc(/C=C2/Sc3ccccc3N2C)c2ccccc2[n+]1-c1ccccc1 [SYBR Green I, N′,N′-dimethyl-N-[4-[(E)-(3-methyl-1,3-benzothiazol-2-ylidene)methyl]-1-phenylquinolin-1-ium-2-yl]-N-propylpropane-1,3-diamine] | Almost all | Medium | Almost all | Medium | Almost all | Medium | Almost all | Medium | Almost all | Medium | Almost all | Medium | Almost all | High | Almost all | High | Almost all | High | Almost all | High | Percentage of cells stained (Enterococcus spp.): Almost all; Relative fluorescent intensity (Enterococcus spp.): medium to high; Relative fluorescent intensity (Enterococcus spp.; listed as SYBR Green): Medium-High
